{
  "source": "patent US20130231346A1",
  "about": "“METHODS OF TREATING CANCER” (GLAXOSMITHKLINE INTELLECTUAL PROPERTY (NO.2) LIMITED, priority 2010, published 2013)",
  "format_in_all_cases": "cell-based",
  "key": {"[1]": {"test_system": "Ras mutant cell lines", "test": "Cell proliferation assays, Ras mutant cell lines", "conditions": "in vitro", "description": "(§1) MEK proteins are a node in a certain extracellular signal-related kinase ERK pathway which is commonly hyper-activated In tumor cells. Oncogenic mutations in both B-raf and Ras signal through MEK1 and MEK2. In vitro, 80% of cell lines carrying activating mutations of B-Raf and 72% of Ras mutant cell lines were sensitive to N-{3-[3-cyclopropyl-5-(2-fluoro-4-iodo-phenylamino)-6,8-dimethyl-2,4,7-trioxo-3,4,6,7-tetrahydro-2H-pyrido[4,3-d]pyrimidin-1-yl]phenyl}acetamide, or a pharmaceutically acceptable salt in cell proliferation assays, and a majority (83% of hematopoietic cancers from acute or chronic myeloid leukemia (AML or CML, respectively) origins were also very sensitive."}, "[2]": {"test_system": "H1573 NSCLC cells", "test": "Caspase 3/7 activation, H1573", "parameters": "key: −: lack of caspase 3/7 activation after 24 hours of compound treatment; ++: moderate; +++: strong; ++++: very strong", "conditions": "H1573, KRAS^G12A; BRG1 MUT, LKB1 WT, CDKN2A WT; 24 hours", "experimental": "(§2) A panel of 24 non-small cell lung carcinoma (NSCLC) cell lines harboring RAS mutations was analyzed for genomic alterations, gene expression profiling and protein phosphorylation in MAPK and PI3K pathways. Inhibition of cell growth and induction of apoptosis were determined by CellTiter-Glo® and caspase 3/7 activation assays after 72 and 24 hours of treatment, respectively."}, "[3]": {"test_system": "Calu1 NSCLC cells", "test": "Caspase 3/7 activation, Calu1", "parameters": "key: −: lack of caspase 3/7 activation after 24 hours of compound treatment; ++: moderate; +++: strong; ++++: very strong", "conditions": "Calu1, KRAS^G12c; BRG1 WT, LKB1 WT, CDKN2A WT; 24 hours", "experimental": "as §2"}, "[4]": {"test_system": "H1155 NSCLC cells", "test": "Caspase 3/7 activation, H1155", "parameters": "key: −: lack of caspase 3/7 activation after 24 hours of compound treatment; ++: moderate; +++: strong; ++++: very strong", "conditions": "H1155, KRAS^Q61H; BRG1 WT, LKB1 WT, CDKN2A WT; 24 hours", "experimental": "as §2"}, "[5]": {"test_system": "hematopoietic cancers from acute or chronic myeloid leukemia (AML or CML) origins", "test": "Cell proliferation assays, AML/CML lines", "conditions": "in vitro", "description": "as §1"}, "[6]": {"test_system": "H1355 NSCLC cells", "test": "Caspase 3/7 activation, H1355", "parameters": "key: −: lack of caspase 3/7 activation after 24 hours of compound treatment; ++: moderate; +++: strong; ++++: very strong", "conditions": "H1355, KRAS^G13C; BRG1 NULL, LKB1 MUT, CDKN2A WT; 24 hours", "experimental": "as §2"}, "[7]": {"test_system": "cell lines carrying activating mutations of B-Raf", "test": "Cell proliferation assays, B-Raf mutant cell lines", "conditions": "in vitro", "description": "as §1"}, "[8]": {"test_system": "H2030 NSCLC cells", "test": "Caspase 3/7 activation, H2030", "parameters": "key: −: lack of caspase 3/7 activation after 24 hours of compound treatment; ++: moderate; +++: strong; ++++: very strong", "conditions": "H2030, KRAS^G12c; BRG1 MUT, LKB1 MUT, CDKN2A WT; 24 hours", "experimental": "(§3) Inhibition of cell growth and induction of apoptosis were determined by CellTiter-Glo® and caspase 3/7 activation assays after 72 and 24 hours of treatment, respectively."}, "[9]": {"test_system": "SW900 NSCLC cells", "test": "Caspase 3/7 activation, SW900", "parameters": "key: −: lack of caspase 3/7 activation after 24 hours of compound treatment; ++: moderate; +++: strong; ++++: very strong", "conditions": "SW900, KRAS^G12V; BRG1 WT, LKB1 WT, CDKN2A MUT; 24 hours", "experimental": "as §3"}, "[10]": {"test_system": "RAS-mutant NSCLC cell lines", "test": "Induction of apoptosis (caspase 3/7 activation) in panel of RAS-mutant NSCLC cell lines", "conditions": "Ras mut NSCLC cell lines, caspase 3/7 activation, 24 hours of treatment, trihydrate", "experimental": "as §2"}},
  "data": [
    {"smiles": "CC(=O)Nc1cccc(-n2c(=O)n(C3CC3)c(=O)c3c(Nc4ccc(I)cc4F)n(C)c(=O)c(C)c32)c1", "note": "[Compound A, N-{3-[3-cyclopropyl-5-(2-fluoro-4-iodo-phenylamino)-6,8-dimethyl-2,4,7-trioxo-3,4,6,7-tetrahydro-2H-pyrido[4,3-d]pyrimidin-1-yl]phenyl}acetamide]", "values": [
      {"measurement": "Share of cell lines sensitive in cell proliferation assays", "setting": "[1]", "value": 72, "unit": "%"},
      {"measurement": "Apoptosis Response (caspase 3/7 activation)", "setting": "[2]", "value": "−"},
      {"measurement": "Apoptosis Response (caspase 3/7 activation)", "setting": "[3]", "value": "−"},
      {"measurement": "Apoptosis Response (caspase 3/7 activation)", "setting": "[4]", "value": "−"},
      {"measurement": "Share of hematopoietic cancers very sensitive in cell proliferation assays", "setting": "[5]", "value": 83, "unit": "%"},
      {"measurement": "Apoptosis Response (caspase 3/7 activation)", "setting": "[6]", "value": "−"},
      {"measurement": "Share of cell lines sensitive in cell proliferation assays", "setting": "[7]", "value": 80, "unit": "%"},
      {"measurement": "Apoptosis Response (caspase 3/7 activation)", "setting": "[8]", "value": "−"},
      {"measurement": "Apoptosis Response (caspase 3/7 activation)", "setting": "[9]", "value": "−"}
    ]},
    {"smiles": "CC(=O)O[C@@]12CO[C@@H]1C[C@H](O)[C@@]1(C)C(=O)[C@H](O)C3=C(C)[C@@H](OC(=O)[C@H](O)[C@@H](NC(=O)OC(C)(C)C)c4ccccc4)C[C@@](O)([C@@H](OC(=O)c4ccccc4)[C@H]21)C3(C)C", "note": "[Docataxel, (2R,3S)—N-carboxy-3-phenylisoserine,N-tert-butyl ester, 13-ester with 5β-20-epoxy-1,2α,4,7β,10β,13α-hexahydroxytax-11-en-9-one 4-acetate 2-benzoate, trihydrate]", "values": [
      {"measurement": "Apoptosis Response (caspase 3/7 activation)", "setting": "[2]", "value": "++"},
      {"measurement": "Apoptosis Response (caspase 3/7 activation)", "setting": "[3]", "value": "−"},
      {"measurement": "Apoptosis Response (caspase 3/7 activation)", "setting": "[4]", "value": "−"},
      {"measurement": "Response Rate (sensitivity/total lines tested), Cell Apoptosis (capsase 3/7)", "setting": "[10]; listed as docetaxel", "value": 42, "unit": "%"},
      {"measurement": "Response Rate (sensitivity/total lines tested), Cell Apoptosis (capsase 3/7)", "setting": "[10]", "value": "42% (10/24)"},
      {"measurement": "Apoptosis Response (caspase 3/7 activation)", "setting": "[6]", "value": "−"},
      {"measurement": "Apoptosis Response (caspase 3/7 activation)", "setting": "[8]", "value": "++"},
      {"measurement": "Apoptosis Response (caspase 3/7 activation)", "setting": "[9]", "value": "−"}
    ]}
  ]
}
